Data published in ChEMBL document CHEMBL4393653, “Applications of Deuterium in Medicinal Chemistry” (J Med Chem, 2019).

Key:
[1] = Cmax in rat at 10 mg/kg, po; assay type: ADME, organism-based; set-up: dose 10 mg/kg, route oral; settings: in vivo
[2] = Half life in rat at 10 mg/kg, po; assay type: ADME, organism-based; settings: in vivo
[3] = Half life in human liver microsomes; assay type: ADME, Microsome

Row | Structure (SMILES) | Cmax [1] | half-life [2] | half-life [3]
1 | [2H]c1c([2H])c([2H])c(C2=C(c3ccc(S(C)(=O)=O)cc3)COC2=O)c([2H])c1[2H] | 4180 ng/mL | 4.29 h | –
2 | [2H]C([2H])([2H])c1nnc(C(C)C)n1[C@@H]1C[C@H]2CC[C@@H](C1)N2CC[C@H](NC(=O)C1CCC(F)(F)CC1)c1ccccc1 | – | – | 0.758 h
3 | [2H]C([2H])([2H])c1nnc(C(C)C)n1[C@@H]1C[C@H]2CC[C@@H](C1)N2C([2H])([2H])C[C@H](NC(=O)C1CCC(F)(F)CC1)c1ccccc1 | – | – | 2.42 h
4 | Cc1nnc(C(C)C)n1[C@@H]1C[C@H]2CC[C@@H](C1)N2CC[C@H](NC(=O)C1CCC(F)(F)CC1)c1ccccc1 [MARAVIROC] | – | – | 1.62 h
5 | CS(=O)(=O)c1ccc(C2=C(c3ccccc3)C(=O)OC2)cc1 [ROFECOXIB] | 2420 ng/mL | 4.18 h | –
